# Legend:
# Assay type in all cases: cell-based
# [1] = tested on: A549 lung cancer cells; test: Cancer cell survival (CellTiter-Glo), A549; settings: Homo sapiens, 72 h
# Procedure, shortened: (§1)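 Log-phase cells are plated at 4×10^3 per well and incubated overnight. Compounds, prepared in media as 10× solutions, are then added and the plates held 72 h at 37 C. Viability is measured by CellTiter-Glo luminescence, and IC50 is derived from survival relative to untreated controls.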
# [2] = tested on: AGS stomach cancer cells; test: Cancer cell survival (CellTiter-Glo), AGS; settings: 72 h
# Procedure, shortened: as §1
# [3] = tested on: MCF7 breast cancer cells; test: Cancer cell survival (CellTiter-Glo), MCF7; settings: Homo sapiens, 72 h
# Procedure, shortened: as §1
# [4] = tested on: Daudi lymphoma cancer cells; test: Cancer cell survival (CellTiter-Glo), Daudi; settings: Homo sapiens, 72 h
# Procedure, shortened: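 Daudi cells (4×10^3/well) were exposed for 72 h at 37 °C to nine concentrations of compound, added as 10× solutions spanning 1 μM–10 mM (fatty acids) or 100 nM–1 mM (others). CellTiter-Glo luminescence gave % survival versus untreated, medium-blank corrected; IC50 derived.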
# [5] = tested on: PC-3 prostate cancer cells; test: Cancer cell survival (CellTiter-Glo), PC-3; settings: Homo sapiens, PC-3 cells, 72 h, read-out: Cell survival at given concentration
# Procedure, shortened: as §1
# [6] = tested on: T24 bladder cancer cells; test: Cancer cell survival (CellTiter-Glo), T24; settings: Homo sapiens
# Procedure, shortened: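 T24 cells seeded at 4×10^3 cells/well overnight, then exposed 72 h at 37 C, 5% CO2 to nine concentrations in triplicate. Survival measured by CellTiter-Glo luminescence relative to untreated and medium controls; IC50 derived.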
# [7] = tested on: A-431 skin cancer cells; test: Cancer cell survival (CellTiter-Glo), A-431; settings: Homo sapiens, A-431 cells, 72 h
# Procedure, shortened: as §1
# [8] = tested on: HCT 116 colorectal cancer cells; test: Cancer cell survival (CellTiter-Glo), HCT 116; settings: Homo sapiens, HCT 116 cells, 72 h
# Procedure, shortened: as §1
# [9] = 101 nM, read-out: Cell survival at given concentration
# [10] = 318 nM, read-out: Cell survival at given concentration
# [11] = 1 μM, read-out: Cell survival at given concentration
# [12] = 3 μM, read-out: Cell survival at given concentration
# [13] = 10 μM, read-out: Cell survival at given concentration
# [14] = 32 μM, read-out: Cell survival at given concentration
# [15] = 100 μM, read-out: Cell survival at given concentration
# [16] = 316 μM, read-out: Cell survival at given concentration
# [17] = 1000 μM, read-out: Cell survival at given concentration
structure (smiles),measurement,setting,value
O=c1c(O)c(-c2cc(O)c(O)c(O)c2)oc2cc(O)cc(O)c12 [myricetin],viability at 0.101 µM,[1]; [9],100%
same,viability at 0.318 µM,[1]; [10],100%
same,viability at 1 µM,[1]; [11],99%
same,viability at 3 µM,[1]; [12],104%
same,viability at 10 µM,[1]; [13],101%
same,viability at 32 µM,[1]; [14],99%
same,viability at 100 µM,[1]; [15],99%
same,viability at 316 µM,[1]; [16],98%
same,viability at 1000 µM,[1]; [17],79%
same,IC50,[1]; Table 7.1,> 1000 µM
same,viability at 0.101 µM,[2]; [9],107%
same,viability at 0.318 µM,[2]; [10],103%
same,viability at 1 µM,"[2]; 1 μM, Table 10.1, read-out: Cell survival at given concentration",110%
same,viability at 3 µM,"[2]; 3 μM, Table 10.1, read-out: Cell survival at given concentration",103%
same,viability at 10 µM,"[2]; 10 μM, Table 10.1, read-out: Cell survival at given concentration",109%
same,viability at 32 µM,"[2]; 32 μM, Table 10.1, read-out: Cell survival at given concentration",111%
same,viability at 100 µM,"[2]; 100 μM, Table 10.1, read-out: Cell survival at given concentration",108%
same,viability at 316 µM,[2]; [16],107%
same,viability at 1000 µM,[2]; [17],81%
same,viability at 0.101 µM,[3]; [9],105%
same,viability at 0.318 µM,[3]; [10],95%
same,viability at 1 µM,[3]; [11],104%
same,viability at 3 µM,[3]; [12],100%
same,viability at 10 µM,[3]; [13],99%
same,viability at 32 µM,[3]; [14],103%
same,viability at 100 µM,[3]; [15],94%
same,viability at 316 µM,[3]; [16],99%
same,viability at 1000 µM,[3]; [17],87%
same,IC50,[3]; Table 5.1,> 1000 µM
same,viability at 0.101 µM,[4]; [9],104%
same,viability at 0.318 µM,[4]; [10],103%
same,viability at 1 µM,[4]; [11],104%
same,viability at 3 µM,[4]; [12],104%
same,viability at 10 µM,[4]; [13],105%
same,viability at 32 µM,[4]; [14],25%
same,viability at 100 µM,[4]; [15],0%
same,viability at 316 µM,[4]; [16],0%
same,viability at 1000 µM,[4]; [17],0%
same,IC50,[4]; Table 4.1,28.1 µM
same,viability at 0.101 µM,[5]; 101 nM,103%
same,viability at 0.318 µM,[5]; 318 nM,99%
same,viability at 1 µM,[5]; 1 μM,103%
same,viability at 3 µM,[5]; 3 μM,100%
same,viability at 10 µM,[5]; 10 μM,105%
same,viability at 32 µM,[5]; 32 μM,101%
same,viability at 100 µM,[5]; 100 μM,102%
same,viability at 316 µM,[5]; 316 μM,101%
same,viability at 1000 µM,[5]; 1000 μM,88%
same,viability at 0.101 µM,"[6]; T-24, 101 nM, 72 h, read-out: Cell survival at given concentration",101%
same,viability at 0.318 µM,"[6]; T-24, 318 nM, 72 h, read-out: Cell survival at given concentration",98%
same,viability at 1 µM,"[6]; T-24, 1 μM, 72 h, read-out: Cell survival at given concentration",106%
same,viability at 3 µM,"[6]; T-24, 3 μM, 72 h, read-out: Cell survival at given concentration",102%
same,viability at 10 µM,"[6]; T-24, 10 μM, 72 h, read-out: Cell survival at given concentration",96%
same,viability at 32 µM,"[6]; T-24, 32 μM, 72 h, read-out: Cell survival at given concentration",9%
same,viability at 100 µM,"[6]; T-24, 100 μM, 72 h, read-out: Cell survival at given concentration",0%
same,viability at 316 µM,"[6]; T-24, 316 μM, 72 h, read-out: Cell survival at given concentration",0%
same,viability at 1000 µM,"[6]; T-24, 1000 μM, 72 h, read-out: Cell survival at given concentration",0%
same,IC50,"[6]; T-24, 72 h, Table 3.1, read-out: 1050",19.1 µM
same,viability at 0.101 µM,[7]; [9],102%
same,viability at 0.318 µM,[7]; [10],100%
same,viability at 1 µM,[7]; [11],102%
same,viability at 3 µM,[7]; [12],102%
same,viability at 10 µM,[7]; [13],100%
same,viability at 32 µM,[7]; [14],96%
same,viability at 100 µM,[7]; [15],87%
same,viability at 316 µM,[7]; [16],87%
same,viability at 1000 µM,[7]; [17],78%
same,IC50,[7]; Table 9.1,> 1000 µM
same,viability at 0.101 µM,[8]; [9],101%
same,viability at 0.318 µM,[8]; [10],104%
same,viability at 1 µM,[8]; [11],107%
same,viability at 3 µM,[8]; [12],105%
same,viability at 10 µM,[8]; [13],102%
same,viability at 32 µM,[8]; [14],31%
same,viability at 100 µM,[8]; [15],0%
same,viability at 316 µM,[8]; [16],0%
same,viability at 1000 µM,[8]; [17],0%
same,IC50,[8]; Table 6.1,26.5 µM

# From US20210085640A1, “ACYLATED CATECHIN POLYPHENOLS AND METHODS OF THEIR USE FOR THE TREATMENT OF CANCER” (Flagship Pioneering Innovations V, Inc., priority 2018, published 2021)
